Source: publication PMC9026082, “Madecassic Acid—A New Scaffold for Highly Cytotoxic Agents” (International Journal of Molecular Sciences, 2022)
Structures can show the parent of a compound that is named as a salt.

Key:
[1] = system: NIH 3T3 (non-malignant fibroblasts); test: SRB cytotoxicity assay, NIH 3T3; format: cell-based; conditions: Mus musculus, NIH3T3, 72 h of treatment, cut-off 30 μM
Excerpt: (§1) To assess their cytotoxicity parent, triterpenoic acids 1–3, their acetates 4–6, the amides 7–18, as well as the respective rhodamine B conjugates 19–24 were subjected to SRB assays employing several human tumor cell lines (A375, HT29, MCF-7, A2780, and HeLa) as well as non-malignant fibroblasts (NIH 3T3).
(§2) A detailed description of materials and methods can be found in the Supplementary Materials File. For biological screening, the cell lines were obtained from ATCC: A375 (CRL-1619), HT29 (HTB-38), MCF7 (HTP-22), A2780 (HTP-77), HeLa (CCL-2), and NIH 3T3 (CRL-1573) ^13C NMR spectra (Supplementary Materials) were recorded as APT spectra showing CH and CH3 groups as positive signals and CH2 groups and quaternary carbons as negative signals. […]
(§3) 2. Cytotoxicity assay (SRB assay)
(§4) The cell lines were obtained from Department of oncology (Martin-Luther-University Halle Wittenberg). Cultures were maintained as monolayers in RPMI 1640 medium with L-glutamine (Capricorn Scientific GmbH, Ebsdorfergrund, Germany) supplemented with 10% heat inactivated fetal bovine serum (Sigma -Aldrich Chemie GmbH, Steinheim, Germany) and penicillin/streptomycin (1%, Capricorn Scientific GmbH, Ebsdorfergrund, Germany) at 37 °C in a humidified atmosphere with 5% CO 2.
(§5) The cytotoxicity of the compounds was eva luated using the sulforhodamine -B (Kiton-Red S, ABCR) micro culture colorimetric assay using […] in 96 -well plates with the seeding of the cells on day 0 applying appropriate cell densities to prevent confluence of the cells during the period of the experiment. On day 1, the cells were treated with six di fferent concentrations (1, 3, 7, 12, 20 and 30 μM); thereby, the final concentration of DMSO was always < 0.5%, generally regarded as non-toxic to the cells. On day 4, the supernatant medium was discarded; the cells were fixed with 10 % trichloroacetic acid. After another day at 4 °C, the cells were washed in a strip washer and dyed with the SRB solution (100 μL, 0.4% in 1% acetic acid) for about 20 min to be followed by washing of the plates (four times, 1% acetic acid) and air -drying […]
(§6) overnight. Furthermore, tris base solution (200 μL, 10 mM) was added to each well and absorbance was measured at λ = 570 nm employing a reader (96 wells, Tecan Spectra, Crailsheim, Germany). The EC50 values were averaged from three independent experiments performed each in triplicate calculated from semi logarithmic dose response curves applying a non-linear four-parameter Hills-slope equation (GraphPad Prism5; variables top and bottom were set to 100 and 0, respectively).

[2] = system: MCF7 (breast adenocarcinoma); test: SRB cytotoxicity assay, MCF7; format: cell-based, human; conditions: Homo sapiens, MCF7, 72 h of treatment, cut-off 30 μM
Excerpt: as §1, §2, §3, §4, §5, §6

[3] = system: A2780 (ovarian carcinoma); test: SRB cytotoxicity assay, A2780; format: cell-based, human; conditions: Homo sapiens, A2780; SRB assay, 72 h of treatment; cut-off 30 μM
Excerpt: as §1, §2, §3, §4, §5, §6

[4] = system: several human tumor cell lines (A375, HT29, MCF-7, A2780, and HeLa); test: SRB assays, cell line not given; format: cell-based; conditions: for EC50: Homo sapiens, SRB assays, lowest value of the series, cell line not stated, read-out: EC50 values as low as (analogs of madecassic acid)
Excerpt: as §1, with “3T3). […]” for “3T3).”
as §3, §4, §5, §6

[5] = system: HT29 (colorectal carcinoma); test: SRB cytotoxicity assay, HT29; format: cell-based, human; conditions: Homo sapiens, HT-29, 72 h of treatment, cut-off 30 μM
Excerpt: as §1, §2, §3, §4, §5, §6

[6] = system: A375 (melanoma); test: SRB cytotoxicity assay, A375; format: cell-based, human; conditions: 72 h of treatment, cut-off 30 μM
Excerpt: as §1, §2, §3, §4, §5, §6

Structure (SMILES) | melting point | EC50 [1] | EC50 [2] | EC50 [3] | EC50 [5] | EC50 ([6]; Homo sapiens, A-375, 72 h) | other results
CCN(CC)c1ccc2c(-c3ccccc3C(=O)N3CCCN(C(=O)[C@]45CCC(C)(C)C[C@H]4C4=CC[C@@H]6[C@@]7(C)CC[C@H](OC(C)=O)[C@@](C)(COC(C)=O)[C@@H]7CC[C@@]6(C)[C@]4(C)CC5)CC3)c3ccc(=[N+](CC)CC)cc-3oc2c1 (as salt: chloride) [Compound 22] | 243 to 248 °C |  |  |  |  |  | 
C[C@H]1[C@H](C)CC[C@]2(C(=O)O)CC[C@]3(C)C(=CC[C@@H]4[C@@]5(C)C[C@@H](O)[C@H](O)[C@@](C)(CO)[C@@H]5[C@H](O)C[C@]43C)[C@H]12 [Compound 3, Madecassic Acid] |  | > 30 µM | > 30 µM | > 30 µM | > 30 µM | > 30 µM | EC50 [4]: ≥ 0.015 µM
CC(=O)OC[C@@]1(C)[C@@H]2[C@H](O)C[C@]3(C)[C@H](CC=C4[C@@H]5[C@@H](C)[C@H](C)CC[C@]5(C(=O)O)CC[C@]43C)[C@@]2(C)C[C@@H](OC(C)=O)[C@@H]1OC(C)=O [Compound 6, (2α,3β,4α,6β) 2,3,23-Tris(acetyloxy)-6-hydroxyurs-12-en-28-oic Acid] |  | 7.6 ± 0.8 µM | 7.1 ± 0.6 µM | 8.1 ± 0.7 µM | 14.5 ± 1.1 µM | 3.5 ± 0.5 µM | EC50 [4]: ≥ 0.015 µM
CC(=O)O[C@H]1CC[C@]2(C)[C@H]3CC=C4[C@@H]5CC(C)(C)CC[C@]5(C(=O)NCc5ccccc5)CC[C@@]4(C)[C@]3(C)CC[C@H]2[C@]1(C)C=O [Compound 7, (3β,4α) 3-Acetyloxy-N-(benzyl)-23-oxo-olean-12-en-28-amide] | 119 to 121 °C | 18.5 ± 4.6 µM | 8.8 ± 1.6 µM | 4.4 ± 0.3 µM | 10.7 ± 1.8 µM | 3.3 ± 0.3 µM | 
CC(=O)O[C@H]1CC[C@]2(C)[C@H]3CC=C4[C@@H]5CC(C)(C)CC[C@]5(C(=O)Nc5ccccc5)CC[C@@]4(C)[C@]3(C)CC[C@H]2[C@]1(C)C=O [Compound 8, (3β,4α) 3-Acetyloxy-N-(phenyl)-23-oxo-olean-12-en-28-amide] | 150 to 152 °C | > 30 µM | > 30 µM | 19.9 ± 1.4 µM | > 30 µM | 7.9 ± 3.3 µM | 
CC(=O)O[C@H]1CC[C@]2(C)[C@H]3CC=C4[C@@H]5CC(C)(C)CC[C@]5(C(=O)N5CCNCC5)CC[C@@]4(C)[C@]3(C)CC[C@H]2[C@]1(C)C=O [Compound 9, (3β,4α) 3-Acetyloxy-N-(piperazinyl)-23-oxo-olean-12-en-28-amide] | 150 to 154 °C |  |  |  |  |  | 
CC(=O)O[C@H]1CC[C@]2(C)[C@H]3CC=C4[C@@H]5CC(C)(C)CC[C@]5(C(=O)N5CCCNCC5)CC[C@@]4(C)[C@]3(C)CC[C@H]2[C@]1(C)C=O [Compound 10, (3β,4α) 3-Acetyloxy-N-(homopiperazinyl)-23-oxo-olean-12-en-28-amide] | 176 to 179 °C |  |  |  |  |  | 
CC(=O)OC[C@@]1(C)[C@@H]2CC[C@]3(C)[C@H](CC=C4[C@@H]5CC(C)(C)CC[C@]5(C(=O)NCc5ccccc5)CC[C@]43C)[C@@]2(C)CC[C@@H]1OC(C)=O [Compound 11, (3β,4α) 3,23-Bis(acetyloxy)-N-(benzyl)-olean-12-en-28-amide] | 210 to 214 °C | > 30 µM | 3.4 ± 0.4 µM | 1.3 ± 0.3 µM | 3.8 ± 0.7 µM | 1.1 ± 0.6 µM | 
CC(=O)OC[C@@]1(C)[C@@H]2CC[C@]3(C)[C@H](CC=C4[C@@H]5CC(C)(C)CC[C@]5(C(=O)Nc5ccccc5)CC[C@]43C)[C@@]2(C)CC[C@@H]1OC(C)=O [Compound 12, (3β,4α) 3,23-Bis(acetyloxy)-N-(phenyl)-olean-12-en-28-amide] | 210 to 214 °C | > 30 µM | 1.9 ± 0.1 µM | 0.8 ± 0.2 µM | 1.9 ± 0.6 µM | 0.66 µM | EC50 [6]: 0.6 ± 0.2 µM
CCN(CC)c1ccc2c(-c3ccccc3C(=O)N3CCCN(C(=O)[C@]45CCC(C)(C)C[C@H]4C4=CC[C@@H]6[C@@]7(C)CC[C@H](OC(C)=O)[C@@](C)(COC(C)=O)[C@@H]7CC[C@@]6(C)[C@]4(C)CC5)CC3)c3ccc(=[N+](CC)CC)cc-3oc2c1 [Compound 22] |  | 0.441 ± 0.12 µM | 0.086 ± 0.01 µM | 0.018 ± 0.001 µM | 0.083 ± 0.02 µM | 0.031 ± 0.007 µM | 
COc1cccc2c1C(=O)c1c(O)c3c(c(O)c1C2=O)C[C@@](O)(C(=O)CO)C[C@@H]3O[C@H]1C[C@H](N)[C@H](O)[C@H](C)O1 [DX, Doxorubicin, reference compound] |  | 1.7 ± 0.3 µM | 1.1 ± 0.3 µM | 0.02 ± 0.01 µM | 0.9 ± 0.2 µM |  | 
CCN(CC)c1ccc2c(-c3ccccc3C(=O)O)c3ccc(=[N+](CC)CC)cc-3oc2c1 [rhodamine B, reference compound] |  |  |  |  |  |  | cytotoxicity ([4]; SRB assay, cut-off 30 μM): not cytotoxic

Continued, in another order:

melting point | Structure (SMILES) | EC50 [1] | EC50 [2] | EC50 [3] | EC50 [5] | EC50 ([6]; Homo sapiens, A-375, 72 h) | other results
228 to 233 °C | CCN(CC)c1ccc2c(-c3ccccc3C(=O)N3CCN(C(=O)[C@]45CC[C@@H](C)[C@H](C)[C@H]4C4=CC[C@@H]6[C@@]7(C)C[C@@H](OC(C)=O)[C@H](OC(C)=O)[C@@](C)(COC(C)=O)[C@@H]7[C@H](O)C[C@@]6(C)[C@]4(C)CC5)CC3)c3ccc(=[N+](CC)CC)cc-3oc2c1 (as salt: chloride) [Compound 23, N-{6-Diethylamino-9-[2-({4[ (2α,3β,4α,6β)-2,3,23-tris(acetyloxy)-6-hydroxy-28-oxours-12-en-28-yl)-1-piperazinyl]carbonyl]phenyl]-3H-xanthen-3-ylidene)-N-ethylethanaminium Chloride] |  |  |  |  |  | 
269 to 273 °C | CCN(CC)c1ccc2c(-c3ccccc3C(=O)N3CCCN(C(=O)[C@]45CC[C@@H](C)[C@H](C)[C@H]4C4=CC[C@@H]6[C@@]7(C)C[C@@H](OC(C)=O)[C@H](OC(C)=O)[C@@](C)(COC(C)=O)[C@@H]7[C@H](O)C[C@@]6(C)[C@]4(C)CC5)CC3)c3ccc(=[N+](CC)CC)cc-3oc2c1 (as salt: chloride) [Compound 24, N-{6-Diethylamino-9-[2-({4[ (2α,3β,4α,6β)-2,3,23-tris(acetyloxy)-6-hydroxy-28-oxours-12-en-28-yl)-1,4-diazepan-1-yl}carbonyl]phenyl]-3H-xanthen-3-ylidene)-N-ethylethanaminium Chloride] |  |  |  |  |  | 
183 to 187 °C | CC(=O)OC[C@@]1(C)[C@@H]2CC[C@]3(C)[C@H](CC=C4[C@@H]5CC(C)(C)CC[C@]5(C(=O)N5CCNCC5)CC[C@]43C)[C@@]2(C)CC[C@@H]1OC(C)=O [Compound 13, (3β,4α)3,23-Bis(acetyloxy)-N-(piperazinyl)-olean-12-en-28-amide] |  |  |  |  |  | 
176 to 180 °C | CC(=O)OC[C@@]1(C)[C@@H]2CC[C@]3(C)[C@H](CC=C4[C@@H]5CC(C)(C)CC[C@]5(C(=O)N5CCCNCC5)CC[C@]43C)[C@@]2(C)CC[C@@H]1OC(C)=O [Compound 14, (3β,4α)3,23-Bis(acetyloxy)-N-(homopiperazinyl)-olean-12-en-28-amide] |  |  |  |  |  | 
133 to 138 °C | CC(=O)OC[C@@]1(C)[C@@H]2[C@H](O)C[C@]3(C)[C@H](CC=C4[C@@H]5[C@@H](C)[C@H](C)CC[C@]5(C(=O)N5CCNCC5)CC[C@]43C)[C@@]2(C)C[C@@H](OC(C)=O)[C@@H]1OC(C)=O [Compound 17, (2α,3β,4α,6β) 2,3,23-Tris(acetyloxy)-N-(piperazinyl)-6-hydroxyurs-12-en-28-amide] |  |  |  |  |  | 
146.5 to 150.5 °C | CC(=O)OC[C@@]1(C)[C@@H]2[C@H](O)C[C@]3(C)[C@H](CC=C4[C@@H]5[C@@H](C)[C@H](C)CC[C@]5(C(=O)N5CCCNCC5)CC[C@]43C)[C@@]2(C)C[C@@H](OC(C)=O)[C@@H]1OC(C)=O [Compound 18, (2α,3β,4α,6β) 2,3,23-Tris(acetyloxy)-N-(homopiperazinyl)-6-hydroxyurs-12-en-28-amide] |  |  |  |  |  | 
